Activity calls are given as the source filed them. The rule behind the calls is not given here.
How the values were obtained:
[1] = tested on: CCRF-CEM; assay: Induction of apoptosis in human CEM cells assessed as internucleosomal breakdown of DNA chromatin at 30 uM; format: functional, cell-based
[2] = tested on: L1210; assay: Cytotoxicity against mouse L1210 cells after 48 hrs by MTT assay; format: functional, cell-based; conditions: L1210, 48 h
[3] = tested on: L1210; assay: Cytotoxicity against mouse L1210 cells after 72 hrs by MTT assay; format: functional, cell-based; conditions: L1210, 72 h
[4] = tested on: Vero; assay: Cytotoxicity against african green monkey VERO cells; format: cell-based; conditions: Chlorocebus sabaeus
[5] = tested on: CCRF-CEM; assay: Cytotoxicity against human CEM cells after 24 hrs by MTT assay; format: functional, cell-based
[6] = tested on: L1210; assay: Induction of apoptosis in mouse L1210 cells assessed as internucleosomal breakdown of DNA chromatin at 30 uM; format: functional, cell-based
[7] = tested on: L1210; assay: Decrease in cytoplasmic glutathione level in mouse L1210 cells; format: functional, cell-based
[8] = Genotoxicity against african green monkey VERO cells; format: toxicity, cell-based; conditions: African green monkey (Chlorocebus sabaeus)
[9] = tested on: CCRF-CEM; assay: Cytotoxicity against human CEM cells after 72 hrs by MTT assay; format: functional, cell-based
[10] = tested on: L1210; assay: Induction of apoptosis in mouse L1210 cells assessed as internucleosomal breakdown of DNA chromatin at 100 uM; format: functional, cell-based
[11] = tested on: L1210; assay: Decrease in cytoplasmic glutathione level in mouse L1210 cells at 100 uM; format: functional; design: scale not given: the % may be the effect or the level left
[12] = tested on: CCRF-CEM; assay: Induction of apoptosis in human CEM cells assessed as internucleosomal breakdown of DNA chromatin at 100 uM; format: functional, cell-based
[13] = tested on: L1210; assay: Decrease in mitochondrial glutathione level in mouse L1210 cells; format: functional, cell-based

O=C(O)c1cc(O)c(O)c(O)c1 [GALLIC ACID]
Activity [1]: Active
IC50 [2]: > 50 µM
IC50 [3]: 50 µM
IC50 [4]: > 1 µM
IC50 [5]: > 50 µM
Activity [6]: Active
Activity [7]: Active
IC50 [8]: > 299 µM
IC50 [9]: > 50 µM
Activity [10]: Active
Activity [11]: 75%
Activity [12]: Active
Activity [13]: Active

— ChEMBL document CHEMBL1157159, “Ester derivatives of gallic acid with potential toxicity toward L1210 leukemia cells” (Bioorg Med Chem, 2008)
